Test [1] relates to rice. The experiment in a line: Test C flooded paddy test. It is filed as in vivo, Oryza sativa. The following applies: Flood. The essentials: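 Plants at the 2-leaf stage in pots flooded to 3 cm were treated by applying compound directly to the paddy water, with depth held throughout. After 13 to 15 days in a greenhouse, response was rated visually against controls on a 0 (no effect) to 100 (complete control) scale.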

In test [2] the test system is lambsquarters. Kind of test: Test C pre-/postemergence herbicide test. Type of test: in vivo, Chenopodium album. From the text: (§1) Seeds of plant species selected from blackgrass (Alopecurus myosuroides), ryegrass, Italian (Italian ryegrass, Lolium multiflorum), wheat (winter wheat, Triticum aestivum), galium (catchweed bedstraw, Galium aparine), corn (Zea mays), crabgrass, large (large crabgrass, Digitaria sanguinalis), foxtail, giant (giant foxtail, Setaria faberii), johnsongrass (Sorghum halepense), lambsquarters (Chenopodium album), morningglory (Ipomoea coccinea), nutsedge, yellow (yellow nutsedge, Cyperus esculentus), pigweed (Amaranthus retroflexus), ragweed (common ragweed, Ambrosia elatior), soybean (Glycine max), barnyardgrass (Echinochloa crus-galli), oilseed rape (Brassica napus), waterhemp (common waterhemp, Amaranthus rudis), kochia (Kochia scoparia), oat, wild (wild oat, Avena fatua), surinam grass (Brachiaria decumbens), foxtail, green (green foxtail, Setaria viridis), goosegrass (Eleusine indica), bromegrass, downy (downy bromegrass, Bromus tectorum), nightshade (eastern black nightshade, Solanum ptycanthum), cocklebur (common cocklebur, Xanthium strumarium), cupgrass, woolly (woolly cupgrass, Eriochloa villosa), bermudagrass (Cynodon dactylon), sunflower, (common oilseed sunflower, Helianthus annuus), Russian thistle (Salsola kali) and velvetleaf (Abutilon theophrasti) were planted into a blend of loam soil and sand and treated preemergence with test chemicals formulated in a non-phytotoxic solvent mixture which included a surfactant. At the same time, plants selected from these crop and weed species and also barley (winter barley, Hordeum vulgare), […]), chickweed (common chickweed, Stellaria media), deadnettle (henbit deadnettle, Lamium amplexicaule), and canarygrass (littleseed canarygrass, Phalaris minor) were planted in pots containing Redi-Earth® planting medium (Scotts Company, 14111 Scottslawn Road, Marysville, Ohio 43041) comprising spaghnum peat moss, vermiculite, wetting agent and starter nutrients and treated with postemergence applications of test chemicals formulated in the same manner. Plants ranged in height from 2 to 18 cm (1- to 4-leaf stage) for postemergence treatments. Treated plants and controls were maintained in a greenhouse for 13 to 15 days, after which time all species were compared to controls and visually evaluated. Plant response ratings, summarized in Table C, are based on a scale of 0 to 100 where 0 is no effect and 100 is complete control. A dash (-) response means no test result.

For test [3], the system named is crabgrass, large. Kind of test: Test C pre-/postemergence herbicide test. Type of test: in vivo, Digitaria sanguinalis.
Source text: as §1

Test [4] has as its system velvetleaf. The experiment in a line: Test C pre-/postemergence herbicide test. Type of test: in vivo, Abutilon theophrasti.
Source text: as §1

Test [5] deals with pigweed. The experiment in a line: Test C pre-/postemergence herbicide test. Type of test: in vivo, Amaranthus retroflexus. The essentials: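 Response scores range from 0, meaning no effect, to 100, meaning complete control, assigned visually by comparison with controls roughly two weeks (13 to 15 days) after spraying. Applications were made preemergence to seeded loam–sand soil and postemergence to 1- to 4-leaf plants.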

Test [6] deals with ragweed. The experiment in a line: Test A pre-/postemergence herbicide test. It is filed as in vivo, Ambrosia elatior. The essentials: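 Scoring was visual, relative to untreated controls, on a 0–100 scale after about 10 greenhouse days. Preemergence treatment used a directed soil spray over seeded loam/sand; postemergence treatment targeted one- to two-leaf plants of 2–10 cm.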

Test [7] concerns wheat (winter wheat). The experiment in a line: Test C pre-/postemergence herbicide test. It is filed as in vivo, Triticum aestivum.
Source text: as §1

The mark [8] stands for this setting: 31 g ai/ha, scale of 0 to 100 where 0 is no effect and 100 is complete control, 13 to 15 days.
[9] abbreviates: 62 g ai/ha, scale of 0 to 100 where 0 is no effect and 100 is complete control, 13 to 15 days.
[10] abbreviates: 125 g ai/ha, scale of 0 to 100 where 0 is no effect and 100 is complete control, 13 to 15 days.
Where [11] appears, read: Postemergence, 31 g ai/ha, scale 0 to 100 (0 no effect, 100 complete control).
The mark [12] stands for this setting: Postemergence, 62 g ai/ha, scale 0 (no effect) to 100 (complete control).
[13] abbreviates: Postemergence, 125 g ai/ha, scale 0 to 100 (0 no effect, 100 complete control).
Setting [14] is: Postemergence, 250 g ai/ha, scale 0 to 100 (0 no effect, 100 complete control).
Where [15] appears, read: Preemergence, 31 g ai/ha, scale 0 to 100, 0 is no effect and 100 is complete control.
The mark [16] stands for this setting: Preemergence, 62 g ai/ha, scale 0 to 100 (0 no effect, 100 complete control).
Setting [17] is: Preemergence, 125 g ai/ha, scale 0 to 100 (0 no effect, 100 complete control).
Setting [18] is: Postemergence, 125 g ai/ha, visual rating on 0 to 100 scale (0 no effect, 100 complete control), approx. 10 days.
Setting [19] is: Postemergence, 500 g ai/ha, 0 to 100 scale (0 no effect, 100 complete control).
The mark [20] stands for this setting: Preemergence, 125 g ai/ha, 0 to 100 scale where 0 is no effect and 100 is complete control.
Setting [21] is: Preemergence, 500 g ai/ha, visual rating on 0 to 100 scale (0 no effect, 100 complete control).
Setting [22] is: Preemergence, 125 g ai/ha, scale 0 to 100.

The text below walks through data of patent US10294202B2, “Pyrrolidinones as herbicides” (FMC Corporation, priority 2013, dated 2019).

For the compound `O=C1NCC(Br)(c2ccccc2)C1C(=O)Nc1ccccc1F` (centres unmarked) [Compound 92, 4-bromo-N-(2-fluorophenyl)-2-oxo-4-phenyl-3-pyrrolidinecarboxamide], the “Plant response rating, Rice” value in test [1] (setting [8]) amounted to 10; in test [1] (setting [9]) it was 10; in test [1] (setting [10]), 20; in test [1] (250 g ai/ha, scale 0 to 100), 20.
Turning to `O=C1NCC(c2ccccc2)C1(Br)C(=O)Nc1ccccc1F` (centres unmarked) [Compound 93, 3-bromo-N-(2-fluorophenyl)-2-oxo-4-phenyl-3-pyrrolidinecarboxamide], the “Plant response rating, Rice” value in test [1] (setting [8]) turned out to be 10; in test [1] (setting [9]) it was 20; in test [1] (setting [10]), 20; in test [1] (250 g ai/ha, scale 0 to 100), 30.
Regarding `CN1CC(c2cccc(C(F)(F)F)c2)C(C(=O)Nc2cccc(F)c2F)C1=O` (centres unmarked) [Compound 305], the “Plant response rating, Lambsquarters” value in test [2] (setting [11]) amounted to 60; in test [2] (setting [12]), 35; in test [2] (setting [13]), 50; in test [2] (setting [14]), 65; in test [2] (setting [17]), 70. In addition, the “Lambsquarters plant response rating” value came to 60 in test [2] (setting [15]) and 70 in test [2] (setting [16]). Moreover, the “Plant response rating (scale of 0 to 100), Lambsquarters” value in test [2] (Preemergence, 250 g ai/ha) stood at 75. For the same compound, the “Plant response rating, Crabgrass, Large” value in test [3] (setting [11]) came out at 40; in test [3] (setting [12]), 55; in test [3] (setting [13]), 75; in test [3] (setting [14]), 80; in test [3] (setting [17]), 90. In addition, the “Crabgrass, Large plant response rating” value in test [3] (setting [15]) and in test [3] (setting [16]) was 95 each time. Besides, the “Plant response rating (scale of 0 to 100), Crabgrass, Large” value in test [3] (Preemergence, 250 g ai/ha) is on record as 95. Also, the “Plant response rating, Velvetleaf” value in test [4] (setting [11]) is 10; in test [4] (setting [12]) it was 40; in test [4] (setting [13]), 40; in test [4] (setting [14]) it was 65; in test [4] (setting [17]), 55. The results for the “Velvetleaf plant response rating” value in test [4] (setting [15]) and in test [4] (setting [16]) were 25 and 30, respectively. Besides, the “Plant response rating (scale of 0 to 100), Velvetleaf” value in test [4] (Preemergence, 250 g ai/ha) came to 55. In addition, the “Plant response rating, Pigweed” value in test [5] (setting [11]) stood at 55; in test [5] (setting [12]), 60; in test [5] (setting [13]), 65; in test [5] (setting [14]), 65; in test [5] (setting [17]), 80. Moreover, the figures for the “Pigweed plant response rating” value in test [5] (setting [15]) and in test [5] (setting [16]) were 10 and 70, respectively. In addition, the “Plant response rating (scale of 0 to 100), Pigweed” value in test [5] (Preemergence, 250 g ai/ha) was 85. The entries for the “Plant response rating, Ragweed” value in test [6] (setting [18]), in test [6] (setting [19]) and in test [6] (setting [20]) were 0, 0 and 30, respectively. The “Ragweed plant response rating” value in test [6] (setting [21]) was 50. Also, the “Plant response rating, Wheat” value came to 0 in test [7] (setting [11]), 0 in test [7] (setting [12]), 0 in test [7] (setting [13]) and 5 in test [7] (setting [14]). The “Wheat plant response rating” value was determined as 45 in test [7] (setting [15]) and 90 in test [7] (setting [16]). Also, the “Plant response rating (scale of 0 to 100), Wheat” value in test [7] (Preemergence, 250 g ai/ha) came out at 90.
On to `CN1CC(c2ccc(C(F)(F)F)cc2)C(C(=O)Nc2cccc(F)c2F)C1=O` (centres unmarked) [Compound 306], for which the “Plant response rating, Lambsquarters” value in test [2] (setting [11]) came out at 60; in test [2] (setting [12]), 70; in test [2] (setting [13]) it was 90; in test [2] (setting [14]) it was 75; in test [2] (setting [17]), 75. In addition, the entries for the “Lambsquarters plant response rating” value in test [2] (setting [15]) and in test [2] (setting [16]) were 55 and 65, respectively. For the same compound, the “Plant response rating (scale of 0 to 100), Lambsquarters” value in test [2] (Preemergence, 250 g ai/ha) is 80. In addition, the “Plant response rating, Crabgrass, Large” value in test [3] (setting [11]) was 10; in test [3] (setting [12]), 45; in test [3] (setting [13]), 75; in test [3] (setting [14]), 85; in test [3] (setting [17]), 95. The entries for the “Crabgrass, Large plant response rating” value in test [3] (setting [15]) and in test [3] (setting [16]) were 90 and 95, respectively. The “Plant response rating (scale of 0 to 100), Crabgrass, Large” value in test [3] (Preemergence, 250 g ai/ha) was determined as 98. Further, the “Plant response rating, Velvetleaf” value in test [4] (setting [11]) came out at 0; in test [4] (setting [12]), 10; in test [4] (setting [13]), 50; in test [4] (setting [14]), 65; in test [4] (setting [17]) it was 60. In test [4] (setting [16]), the “Velvetleaf plant response rating” value is 60. For the same compound, the “Plant response rating (scale of 0 to 100), Velvetleaf” value in test [4] (Preemergence, 250 g ai/ha) was determined as 65. Besides, the “Plant response rating, Pigweed” value in test [5] (setting [11]) is recorded as 75; in test [5] (setting [12]) it was 85; in test [5] (setting [13]), 85; in test [5] (setting [14]), 90; in test [5] (setting [17]), 85. Also, the “Pigweed plant response rating” value in test [5] (setting [15]) is listed as 80; in test [5] (setting [16]) it was 85. Besides, in test [5] (Preemergence, 250 g ai/ha), the “Plant response rating (scale of 0 to 100), Pigweed” value came out at 90. In addition, the “Plant response rating, Ragweed” value was 20 in test [6] (setting [18]) and 40 in test [6] (setting [19]). Further, the “Ragweed plant response rating” value in test [6] (setting [21]) stood at 80. Besides, the “Plant response rating, Wheat” value in test [7] (setting [11]), in test [7] (setting [12]), in test [7] (setting [13]) and in test [7] (setting [14]) was 0 throughout. In test [7] (setting [16]), the “Wheat plant response rating” value is 50. For the same compound, the “Plant response rating (scale of 0 to 100), Wheat” value in test [7] (Preemergence, 250 g ai/ha) is recorded as 85.
Regarding `CC(C)c1cccc(C2CNC(=O)C2C(=O)Nc2cccc(F)c2F)c1` (centres unmarked) [Compound 319], the “Lambsquarters plant response rating” value in test [2] (setting [15]) is listed as 60; in test [2] (setting [16]), 65. The “Plant response rating, Lambsquarters” value in test [2] (setting [22]) worked out at 65. Further, the “Plant response rating (scale of 0 to 100), Lambsquarters” value in test [2] (Preemergence, 250 g ai/ha) came out at 75. The “Crabgrass, Large plant response rating” value in test [3] (setting [15]) was determined as 95; in test [3] (setting [16]) it was 98. Further, in test [3] (setting [22]), the “Plant response rating, Crabgrass, Large” value came to 95. The “Plant response rating (scale of 0 to 100), Crabgrass, Large” value in test [3] (Preemergence, 250 g ai/ha) is reported as 98. Also, the “Velvetleaf plant response rating” value in test [4] (setting [16]) was 20. The “Plant response rating, Velvetleaf” value in test [4] (setting [22]) is 45. Moreover, the results for the “Pigweed plant response rating” value in test [5] (setting [15]) and in test [5] (setting [16]) were 30 and 25, respectively. In addition, the “Plant response rating, Pigweed” value in test [5] (setting [22]) stood at 40. Moreover, the “Plant response rating, Ragweed” value was 20 in test [6] (setting [18]), 40 in test [6] (setting [19]) and 30 in test [6] (setting [20]). Moreover, in test [6] (setting [21]), the “Ragweed plant response rating” value was 40. In test [7] (setting [16]), the “Wheat plant response rating” value worked out at 0. For the same compound, the “Plant response rating, Wheat” value in test [7] (setting [22]) is 10.
